Assay results published in BindingDB's records for doi:10.1016/j.bioorg.2017.03.014 (University of Karachi, 2017).

Tests used:
Carbonic anhydrase 2 [1] = biological target: T1, Carbonic anhydrase 2 (Bos taurus, UniProt P00921); experiment: Carbonic Anhydrase II Inhibition Assay; details: pH 7.4; 25 °C
Description: In this assay, 4-nitrophenyl acetate (4-NPA), a colorless compound, was hydrolyzed to 4-nitrophenol and […]. The reaction was followed by measuring the formation of 4-nitrophenol, a yellow colored compound. The reaction was performed at 25 °C inbuffer containing HEPES and Tris-HCl at a total concentration of 20 mM and pH of 7.4 for each sample. The reaction mixture contained 140 μL of the HEPES-tris solution, 20 μL of freshly prepared aqueous solution of purified bovine erythrocyte CA-II (0.1 mg/mL of deionized water for 96-well), 20 μL of test compound in DMSO (10% final concentration), 20 μL of substrate 4-NPA at a concentration of 0.7 mM diluted in ethanol. The reaction was initiated by addition of 4-NPA after 15 min incubation of test compound, and each compound was tested 3-times at different concentrations. In this assay, the reaction was performed using 96-well plates.

Carbonic anhydrase 2 [2] = biological target: T1, Carbonic anhydrase 2; experiment: Carbonic Anhydrase II Kinetic Assay; details: pH 7.4
Description: Kinetic studies were performed by using different concentration of inhibitors over different concentrations of substrate (4-NPA) such as 0.175, 0.35, 0.70 and 1.40 mM. The enzyme 0.2 mg/mL concentration for each well was used after dissolving in de-ionized water. HEPES-tris ammonia was used as buffer at pH of 7.4. The change in absorbance was measured by keeping the 96-well flat bottom plate in ELISA reader (Spectra max 384, Molecular Devices USA) after addition of substrate for a period of 30 min at 25 °C with 1 min interval.

T1 sequence (P00921 whole entry): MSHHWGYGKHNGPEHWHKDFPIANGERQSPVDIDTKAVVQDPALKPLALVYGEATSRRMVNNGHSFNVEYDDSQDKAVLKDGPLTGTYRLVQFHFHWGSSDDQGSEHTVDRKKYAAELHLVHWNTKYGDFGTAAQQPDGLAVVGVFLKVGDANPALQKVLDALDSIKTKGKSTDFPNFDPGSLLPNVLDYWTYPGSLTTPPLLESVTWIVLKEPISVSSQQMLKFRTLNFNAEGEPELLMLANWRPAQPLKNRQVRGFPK

| IC50 (Carbonic anhydrase 2 [1]) | Ki (Carbonic anhydrase 2 [2]) | Compound |
| --- | --- | --- |
| 2670 nM |  | O=C(N/N=C/c1ccc(Cl)cc1Cl)N/N=C/c1ccc(Cl)cc1Cl [N'',N'''-Bis[(E)-(2,4-dichlorophenyl)methylidene]carbonic dihydrazide (8)] |
| 1460 nM | 1780 nM | O=C(N/N=C/c1c(Cl)cccc1Cl)N/N=C/c1c(Cl)cccc1Cl [N'',N'''-Bis[(E)-(2,6-dichlorophenyl)methylidene]carbonic dihydrazide (9)] |
| 3960 nM |  | O=C(N/N=C/c1ccccc1Br)N/N=C/c1ccccc1Br [N'',N'''-Bis[(E)-(2-bromophenyl)methylidene]carbonic dihydrazide (5)] |
| 1370 nM | 3580 nM | O=C(N/N=C/c1cc([N+](=O)[O-])ccc1Cl)N/N=C/c1cc([N+](=O)[O-])ccc1Cl [N'',N'''-Bis[(E)-(2-chloro-5-nitrophenyl)methylidene]carbonic dihydrazide (3)] |
| 2330 nM | 4120 nM | O=C(N/N=C/c1ccccc1Cl)N/N=C/c1ccccc1Cl [N'',N'''-Bis[(E)-(2-chlorophenyl)methylidene]carbonic dihydrazide (7)] |
| 1850 nM | 1810 nM | O=C(N/N=C/c1ccccc1[N+](=O)[O-])N/N=C/c1ccccc1[N+](=O)[O-] [N'',N'''-Bis[(E)-(2-nitrophenyl)methylidene]carbonic dihydrazide (2)] |
| 2320 nM | 2520 nM | O=C(N/N=C/c1ccc(Br)cc1)N/N=C/c1ccc(Br)cc1 [N'',N'''-Bis[(E)-(4-bromophenyl)methylidene]carbonic dihydrazide (4)] |
| 1330 nM | 2350 nM | O=C(N/N=C/c1ccc([N+](=O)[O-])cc1)N/N=C/c1ccc([N+](=O)[O-])cc1 [N'',N'''-Bis[(E)-(4-nitrophenyl)methylidene]carbonic dihydrazide (1)] |
